Measured values taken from patent US20240174662A1, “SMALL MOLECULE INHIBITORS OF SALT INDUCIBLE KINASES” (Janssen Biotech, Inc., priority 2021, published 2024).
Where “and” joins values, the source holds several entries; their conditions need not be identical. Equal entries are not always repeated.

Target: SIK2 (Homo sapiens (Human), UniProt Q9H0K1)
Experiment: SIK2 Enzymatic Assay Version 2 (High ATP)
Type: biochemical
Conditions: 3 mM ATP and 200 μM HDAC5tide final, ADP-Glo Max luminescence
In short: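 Run at room temperature; SIK2 enzyme at 6 nM (2× final) preincubated with compound 30 min before reaction. ADP formation detected by ADP-Glo Max (2 h reagent, 1 h detection) with luminescence read-out.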

Sequence of SIK2 (Q9H0K1 whole entry, species assumed): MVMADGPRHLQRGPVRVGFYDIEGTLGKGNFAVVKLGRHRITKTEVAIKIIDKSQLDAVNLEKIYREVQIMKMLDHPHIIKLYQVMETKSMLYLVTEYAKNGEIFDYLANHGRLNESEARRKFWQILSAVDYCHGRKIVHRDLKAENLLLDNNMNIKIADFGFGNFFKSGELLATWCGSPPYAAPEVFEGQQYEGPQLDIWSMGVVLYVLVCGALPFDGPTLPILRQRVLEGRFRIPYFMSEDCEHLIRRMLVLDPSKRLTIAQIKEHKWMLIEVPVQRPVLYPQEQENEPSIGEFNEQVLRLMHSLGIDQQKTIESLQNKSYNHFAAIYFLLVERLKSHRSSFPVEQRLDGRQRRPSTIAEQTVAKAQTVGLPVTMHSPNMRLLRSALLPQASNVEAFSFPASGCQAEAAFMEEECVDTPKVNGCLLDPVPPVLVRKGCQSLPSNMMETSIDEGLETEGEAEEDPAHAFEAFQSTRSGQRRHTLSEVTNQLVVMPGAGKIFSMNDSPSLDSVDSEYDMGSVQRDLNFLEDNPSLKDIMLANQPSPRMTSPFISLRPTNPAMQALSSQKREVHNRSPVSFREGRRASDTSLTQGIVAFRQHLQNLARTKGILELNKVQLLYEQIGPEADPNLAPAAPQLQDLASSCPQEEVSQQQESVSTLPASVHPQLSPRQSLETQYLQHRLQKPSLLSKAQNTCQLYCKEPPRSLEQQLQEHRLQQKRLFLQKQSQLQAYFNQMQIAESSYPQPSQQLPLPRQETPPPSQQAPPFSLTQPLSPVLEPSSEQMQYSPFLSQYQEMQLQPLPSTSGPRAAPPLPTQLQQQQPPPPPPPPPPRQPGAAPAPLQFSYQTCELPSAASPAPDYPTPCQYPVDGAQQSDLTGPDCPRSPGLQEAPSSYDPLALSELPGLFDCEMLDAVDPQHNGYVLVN

SMILES	IC50
CO[C@H]1CNC[C@H]1Oc1cnn(C(F)F)c1-c1ccn2nc(Nc3cc(C)nc(C)n3)cc2c1 [Example 96, 5-[2-(difluoromethyl)-4-[(3R,4S)-4-methoxypyrrolidin-3-yl]oxy-pyrazol-3-yl]-N-(2,6-dimethylpyrimidin-4-yl)pyrazolo[1,5-a]pyridin-2-amine]	6.8 nM
Cc1snc(OC[C@H]2CNCCO2)c1-c1ccn2nc(NC(=O)C3CC3)cc2c1 [Example 331, N-[5-[5-methyl-3-[[(2R)-morpholin-2-yl]methoxy]isothiazol-4-yl]pyrazolo[1,5-a]pyridin-2-yl]cyclopropanecarboxamide]	32.4 nM
Cn1ncc(OC[C@H]2CCN2CC#N)c1-c1ccn2nc(NC(=O)C3CC3)cc2c1 [Example 425, N-[5-[4-[[(2R)-1-(cyanomethyl)azetidin-2-yl]methoxy]-2-methyl-pyrazol-3-yl]pyrazolo[1,5-a]pyridin-2-yl]cyclopropanecarboxamide]	155 nM
COC[C@@H]1C[C@H](Oc2noc(C)c2-c2ccn3nc(Nc4cc(C)c(C)nn4)cc3c2)CN1C [Example 391, N-(5,6-dimethylpyridazin-3-yl)-5-[3-[(3S,5S)-5-(methoxymethyl)-1-methyl-pyrrolidin-3-yl]oxy-5-methyl-isoxazol-4-yl]pyrazolo[1,5-a]pyridin-2-amine]	94.1 nM
Cc1onc(O[C@H]2CNC[C@H]2F)c1-c1ccn2nc(NC(=O)C3CC3)cc2c1 [Example 80, N-[5-[3-[(3S,4R)-4-fluoropyrrolidin-3-yl]oxy-5-methyl-isoxazol-4-yl]pyrazolo[1,5-a]pyridin-2-yl]cyclopropanecarboxamide]	146 nM
CCN1CC[C@@H]1COc1cnn(C)c1-c1ccn2nc(Nc3cnc(C(F)(F)F)cn3)cc2c1 [Example 160, 5-[4-[[(2R)-1-ethylazetidin-2-yl]methoxy]-2-methyl-pyrazol-3-yl]-N-[5-(trifluoromethyl)pyrazin-2-yl]pyrazolo[1,5-a]pyridin-2-amine]	2.5 nM and 3.6 nM
COc1cnc(Nc2cc3cc(-c4c(OC[C@H]5CCN5C)cnn4C)ccn3n2)cn1 [Example 154, N-(5-methoxypyrazin-2-yl)-5-[2-methyl-4-[[(2R)-1-methylazetidin-2-yl]methoxy]pyrazol-3-yl]pyrazolo[1,5-a]pyridin-2-amine]	7.9 nM
Cc1onc(OC[C@@H]2COCCN2)c1-c1ccn2nc(NC(=O)C3CC3)cc2c1 [Example 497]	2530 nM
Cc1onc(O[C@H]2CNC[C@@H]2F)c1-c1ccn2nc(NC(=O)C3CC3)cc2c1 [Example 82, N-[5-[3-[(3S,4S)-4-fluoropyrrolidin-3-yl]oxy-5-methyl-isoxazol-4-yl]pyrazolo[1,5-a]pyridin-2-yl]cyclopropanecarboxamide]	3950 nM
CC(C)CN1CC[C@@H]1COc1cnn(C)c1-c1ccn2nc(NC(=O)C3CC3)cc2c1 [Example 244, N-[5-[4-[[(2R)-1-isobutylazetidin-2-yl]methoxy]-2-methyl-pyrazol-3-yl]pyrazolo[1,5-a]pyridin-2-yl]cyclopropanecarboxamide]	6.3 nM
[2H]C([2H])([2H])N1CC[C@@H]1COc1cnn(C)c1-c1ccn2nc(Nc3cc(C)nc(C)n3)cc2c1 [Example 290, N-(2,6-dimethylpyrimidin-4-yl)-5-[2-methyl-4-[[(2R)-1-(trideuteriomethyl)azetidin-2-yl]methoxy]pyrazol-3-yl]pyrazolo[1,5-a]pyridin-2-amine]	< 0.847 nM
COCCN1CC[C@@H]1COc1cnn(C)c1-c1ccn2nc(NC(=O)C3CC3)cc2c1 [Example 243, N-[5-[4-[[(2R)-1-(2-methoxyethyl)azetidin-2-yl]methoxy]-2-methyl-pyrazol-3-yl]pyrazolo[1,5-a]pyridin-2-yl]cyclopropanecarboxamide]	11.3 nM
COC1(COc2cnn(C)c2-c2ccn3nc(NC(=O)C4CC4)cc3c2)CN(C)C1 [Example 406, N-[5-[4-[(3-methoxy-1-methyl-azetidin-3-yl)methoxy]-2-methyl-pyrazol-3-yl]pyrazolo[1,5-a]pyridin-2-yl]cyclopropanecarboxamide]	174 nM
Cc1cc(Nc2cc3cc(-c4c(O[C@@H]5CN[C@H](C)C5)noc4C)ccn3n2)nc(C)n1 [Example 90, N-(2,6-dimethylpyrimidin-4-yl)-5-[5-methyl-3-[(3S,5R)-5-methylpyrrolidin-3-yl]oxy-isoxazol-4-yl]pyrazolo[1,5-a]pyridin-2-amine]	14.4 nM
Cc1cc(Nc2cc3cc(-c4c(OC[C@H]5CCN5C)cnn4C)ccn3n2)nc(C(=O)NCC(C)(C)O)c1 [Example 113, N-(2-hydroxy-2-methyl-propyl)-4-methyl-6-[[5-[2-methyl-4-[[(2R)-1-methylazetidin-2-yl]methoxy]pyrazol-3-yl]pyrazolo[1,5-a]pyridin-2-yl]amino]pyridine-2-carboxamide]	22.3 nM
Cc1cc(Nc2cc3cc(-c4c(O[C@@H]5CN[C@H](C(F)F)C5)noc4C)ccn3n2)nc(C)n1 [Example 327, 5-[3-[(3S,5S)-5-(difluoromethyl)pyrrolidin-3-yl]oxy-5-methyl-isoxazol-4-yl]-N-(2,6-dimethylpyrimidin-4-yl)pyrazolo[1,5-a]pyridin-2-amine]	42.8 nM
Cc1cc(Nc2cc3cc(-c4c(O[C@@H]5CNC[C@@H]5F)noc4C)ccn3n2)nc(C)n1 [Example 92, N-(2,6-dimethylpyrimidin-4-yl)-5-[3-[(3R,4S)-4-fluoropyrrolidin-3-yl]oxy-5-methyl-isoxazol-4-yl]pyrazolo[1,5-a]pyridin-2-amine]	4.3 nM
CCN1CC[C@@H]1COc1cnn(C)c1-c1ccn2nc(Nc3cc(C)nc(OC)n3)cc2c1 [Example 173, 5-[4-[[(2R)-1-ethylazetidin-2-yl]methoxy]-2-methyl-pyrazol-3-yl]-N-(2-methoxy-6-methyl-pyrimidin-4-yl)pyrazolo[1,5-a]pyridin-2-amine]	< 0.847 nM
CCc1cc(Nc2cc3cc(-c4c(OC[C@H]5CCN5C)cnn4C)ccn3n2)nc(C)n1 [Example 145, N-(6-ethyl-2-methyl-pyrimidin-4-yl)-5-[2-methyl-4-[[(2R)-1-methylazetidin-2-yl]methoxy]pyrazol-3-yl]pyrazolo[1,5-a]pyridin-2-amine]	< 0.847 nM
Cn1ncc(OC[C@@H]2CCNC2)c1-c1ccn2nc(NC(=O)C3CC3)cc2c1 [Example 229, N-[5-[2-methyl-4-[[(3R)-pyrrolidin-3-yl]methoxy]pyrazol-3-yl]pyrazolo[1,5-a]pyridin-2-yl]cyclopropanecarboxamide]	23.8 nM
CN1CC2(CCOCC2)[C@@H]1COc1cnn(C)c1-c1ccn2nc(NC(=O)C3CC3)cc2c1 (single isomer, unassigned) [Example 58, (*R)—N-(5-(1-methyl-4-((2-methyl-7-oxa-2-azaspiro[3.5]nonan-1-yl)methoxy)-1H-pyrazol-5-yl)pyrazolo[1,5-a]pyridin-2-yl)cyclopropanecarboxamide]	57.8 nM
CN1CC[C@@H]1COc1cnn(C)c1-c1ccn2nc(NC(=O)[C@H]3C[C@H]3c3ccccc3)cc2c1 (single isomer, unassigned) [Example 159, (1*S,2*R)—N-(5-(1-methyl-4-(((R)-1-methylazetidin-2-yl)methoxy)-1H-pyrazol-5-yl)pyrazolo[1,5-a]pyridin-2-yl)-2-phenylcyclopropane-1-carboxamide]	24.2 nM
CCN1CC[C@@H]1COc1cnn(C)c1-c1ccn2nc(Nc3cc(C)c(C)nn3)cc2c1 [Example 18, (R)—N-(5,6-Dimethylpyridazin-3-yl)-5-(4-((1-ethylazetidin-2-yl)methoxy)-1-methyl-1H-pyrazol-5-yl)pyrazolo[1,5-a]pyridin-2-amine]	1 nM
COCCNC(=O)c1cnc(Nc2cc3cc(-c4c(OC[C@H]5CCN5C)cnn4C)ccn3n2)cn1 [Example 115, N-(2-methoxyethyl)-5-[[5-[2-methyl-4-[[(2R)-1-methylazetidin-2-yl]methoxy]pyrazol-3-yl]pyrazolo[1,5-a]pyridin-2-yl]amino]pyrazine-2-carboxamide]	9 nM
Cc1onc(OC[C@@](C)(N)c2ccccc2)c1-c1ccn2nc(NC(=O)C3CC3)cc2c1 [Example 225, N-[5-[3-[(2S)-2-amino-2-phenyl-propoxy]-5-methyl-isoxazol-4-yl]pyrazolo[1,5-a]pyridin-2-yl]cyclopropanecarboxamide]	12 nM
CN1CC[C@@H]1COc1cnn(C)c1-c1ccn2nc(Nc3ccc(C(=O)NCC(C)(C)O)cn3)cc2c1 [Example 106, N-(2-hydroxy-2-methyl-propyl)-6-[[5-[2-methyl-4-[[(2R)-1-methylazetidin-2-yl]methoxy]pyrazol-3-yl]pyrazolo[1,5-a]pyridin-2-yl]amino]pyridine-3-carboxamide]	2.4 nM
CN1CC[C@@H]1COc1cnn(C)c1-c1ccn2nc(Nc3cc(C(F)(F)F)ncn3)cc2c1 [Example 123, 5-[2-methyl-4-[[(2R)-1-methylazetidin-2-yl]methoxy]pyrazol-3-yl]-N-[6-(trifluoromethyl)pyrimidin-4-yl]pyrazolo[1,5-a]pyridin-2-amine]	8.4 nM
Cc1cc(Nc2cc3cc(-c4c(CO[C@@H]5CN(C)C[C@H]5C)cnn4C)ccn3n2)nc(C)n1 (relative stereo) [Example 366, Trans-*S, *R—N-(2,6-dimethylpyrimidin-4-yl)-5-[4-[(1,4-dimethylpyrrolidin-3-yl)oxymethyl]-2-methyl-pyrazol-3-yl]pyrazolo[1,5-a]pyridin-2-amine]	1.6 nM
Cc1cnc(Nc2cc3cc(-c4c(O[C@H]5CCN(C)C5)cnn4C)ccn3n2)cn1 [Example 454, 5-[2-methyl-4-[(3S)-1-methylpyrrolidin-3-yl]oxy-pyrazol-3-yl]-N-(5-methylpyrazin-2-yl)pyrazolo[1,5-a]pyridin-2-amine]	81.3 nM
Cn1ncc(OC2CNC2)c1-c1ccn2nc(NC(=O)C3CC3)cc2c1 [Example 397, N-[5-[4-(azetidin-3-yloxy)-2-methyl-pyrazol-3-yl]pyrazolo[1,5-a]pyridin-2-yl]cyclopropanecarboxamide]	128 nM
